Test results published in patent publication US9487489B2, “Halogen-substituted pyrazole derivatives as pest-control agents” (BAYER CROPSCIENCE AKTIENGESELLSCHAFT, priority 2013, dated 2016).

What was measured:
[1] = logP determination by HPLC on a reversed-phase column (C18), EEC Directive 79/831 Annex V.A8; type: physicochemical; conditions: HPLC on reversed-phase column (C18), acetonitrile/water with formic acid, EEC Directive 79/831 Annex V.A8
How it was run: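 Retention on a C18 reversed-phase column (Zorbax Eclipse Plus, 1.8 micron) was used, eluting with acetonitrile/water, each containing formic acid. The gradient ran from 10% to 95% acetonitrile over 4.25 min, then held 1.25 min, at 55° C and 2.0 ml/min, with MS detection.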

[2] = test system: cattle ticks (Boophilus microplus) Parkhurst strain, SP-resistant; assay: Boophilus microplus dip test (BOOPMI Dip); type: in vivo; conditions: application rate 100 ppm, assessed after 7 days
Description: B. Boophilus microplus-dip Test (BOOPMI Dip)
Test animals: cattle ticks (Boophilus microplus) Parkhurst strain, SP-resistant
(§1) Solvent: dimethyl sulphoxide
10 mg of active compound are dissolved in 0.5 ml of dimethyl sulphoxide. For the purpose of preparing a suitable formulation, the active compound solution is diluted with water to the concentration desired in each case.
This active compound preparation is pipetted into tubes. 8-10 adult engorged female cattle ticks (Boophilus microplus) are transferred into a further tube with holes. The tube is immersed into the active compound formulation, and all ticks are completely wetted. After the liquid has run out, the ticks are transferred on filter discs into plastic dishes and stored in a climate-controlled room.
The activity is assessed after 7 days by laying of fertile eggs. Eggs whose fertility is not visible from the outside are stored in a climate-controlled cabinet until the larvae hatch after about 42 days. An efficacy of 100% means that none of the ticks has laid any fertile eggs; 0% means that all eggs are fertile.

[3] = test system: engorged adult female cattle ticks (Boophilus microplus); assay: Boophilus microplus injection test (BOOPMI Inj); type: in vivo; conditions: application rate 20 μg/animal; injection into abdomen; assessed after 7 days
How it was run: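 DMSO solution of compound (1 μl) injected into the abdomen of 5 engorged adult female ticks, which are then held in a climate-controlled room. After 7 days, efficacy is scored from laying of fertile eggs, with unclear eggs kept until larval hatch (~42 days); 100% means no fertile eggs, 0% all fertile.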

[4] = test system: adult cat fleas (Ctenocephalides felis); assay: Ctenocephalides felis oral test (CTECFE); type: in vivo; conditions: application rate 100 ppm in citrated cattle blood; after 2 days
How it was run: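 About 20 unfed adult cat fleas fed through parafilm membrane on citrated cattle blood containing compound (DMSO stock diluted in blood to test concentration). Kill % scored after 2 days (100% = all fleas dead).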

[5] = test system: L1 larvae of the Australian sheep blowfly (Lucilia cuprina); assay: Lucilia cuprina test (LUCICU); type: in vivo; conditions: application rate 100 ppm; after 2 days
How it was run: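 About 20 L1 larvae placed in a vessel with minced horsemeat plus compound (DMSO concentrate diluted with water to the desired concentration). Kill in % scored after 2 days, 100% meaning all larvae dead.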

[6] = test system: adult houseflies (Musca domestica); assay: Musca domestica test (MUSCDO); type: in vivo; conditions: application rate 100 ppm; after 2 days
Description: F. Musca domestica Test (MUSCDO)
as §1
To produce a suitable preparation of active compound, 10 mg of active compound are mixed with 0.5 ml of dimethyl sulphoxide, and the concentrate is diluted with water to the desired concentration.
Vessels containing a sponge treated with sugar solution and the active compound preparation of the desired concentration are populated with 10 adult houseflies (Musca domestica).
After 2 days, the kill in % is determined. 100% means that all of the flies have been killed; 0% means that none of the flies have been killed.

[7] = test system: larvae of the mustard beetle (Phaedon cochleariae); assay: Phaedon cochleariae spray test (PHAECO); type: in vivo; conditions: Chinese cabbage leaf discs, after 7 days
How it was run: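 Compound dissolved in acetone/dimethylformamide with alkylaryl polyglycol ether emulsifier, made up in water containing 1000 ppm emulsifier, then diluted to test concentrations and sprayed against mustard beetle larvae. Efficacy (% larvae killed) scored after 7 days.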

[8] = test system: caterpillars of the armyworm (Spodoptera frugiperda); assay: Spodoptera frugiperda spray test (SPODFR); type: in vivo; conditions: maize leaf discs, after 7 days
How it was run: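 Maize leaf discs sprayed with compound in acetone/DMF with alkylaryl polyglycol ether emulsifier (1000 ppm) in water, dried, then infested with armyworm caterpillars. Mortality (%) scored after 7 days; 100% = all caterpillars killed, 0% = none killed.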

[9] = test system: adult cat fleas (Ctenocephalides felis); assay: Ctenocephalides felis in vitro contact test with adult cat fleas (T1); conditions: after 48 h
How it was run: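 Test compound was dissolved in acetone p.a. (9 mg per 1 ml) and diluted as needed. 250 μl was spread evenly over the inner walls and floor of a 25 ml test tube by rotating on an orbital shaker for 2 h at 30 rpm. Once the solvent evaporated, 5-10 adult Ctenocephalides felis were added. Tubes were capped with a perforated plastic lid and kept horizontal at room temperature and ambient humidity.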

[10] = test system: green peach aphid (Myzus persicae); assay: Myzus persicae spray test (MYZUPE); type: in vivo; conditions: Chinese cabbage leaf discs, after 6 days
Description: G. Myzus persicae-spray Test (MYZUPE)
Solvents: 78 parts by weight of acetone
• 1.5 parts by weight of dimethylformamide Emulsifier: alkylaryl polyglycol ether
To produce a suitable preparation of active compound, 1 part by weight of active compound is dissolved using the stated parts by weight of solvent and made up with water comprising an emulsifier concentration of 1000 ppm until the desired concentration is reached. To produce further test concentrations, the preparation is diluted with emulsifier-containing water.
Discs of Chinese cabbage leaves (Brassica pekinensis) infested by all stages of the green peach aphid (Myzus persicae) are sprayed with an active compound preparation of the desired concentration.
After 6 days, the efficacy in % is determined 100% here means that all of the aphids have been killed; 0% means that no aphids have been killed.

[11] = test system: greenhouse red spider mite (Tetranychus urticae); assay: Tetranychus urticae spray test, OP-resistant (TETRUR); type: in vivo; conditions: bean leaf discs, after 6 days
How it was run: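 Bean leaf discs carrying all stages of OP-resistant Tetranychus urticae were sprayed with compound formulated in acetone/dimethylformamide and diluted in water with 1000 ppm alkylaryl polyglycol ether emulsifier. Mortality (% efficacy, 100% = all mites killed) scored after 6 days.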

[12] = test system: adult dog ticks (Rhipicephalus sanguineus); assay: Rhipicephalus sanguineus in vitro contact test with adult brown dog ticks (T2); conditions: after 48 h
How it was run: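 Acetone solutions coated onto test tube walls and floor, giving 5 μg/cm^2 at 900 ppm. Five to ten adult ticks held per tube in the dark at room temperature for 48 h, then heated at 45-50° C for up to 5 min; efficacy is the percentage of dead or moribund ticks unable to climb away.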

Structure (SMILES) | logP [1] | efficacy (laying of fertile eggs) [2] | efficacy (laying of fertile eggs) [3] | efficacy (kill in %) [4] | efficacy (kill in %) [5] | efficacy (kill in %) [6] | efficacy in % ([7]; application rate 100 g/ha) | efficacy in % ([8]; application rate 100 g/ha) | efficacy (dead or moribund fleas) ([9]; application rate 1 μg/cm^2) | efficacy (dead or moribund fleas) ([9]; application rate 5 μg/cm^2) | efficacy in % ([10]; application rate 100 g/ha) | efficacy in % ([11]; application rate 100 g/ha) | efficacy (dead or moribund ticks) ([12]; application rate 5 μg/cm^2) | efficacy (dead or moribund ticks) ([12]; application rate 1 μg/cm^2) | efficacy in % ([7]; application rate 500 g/ha) | efficacy in % ([8]; application rate 500 g/ha) | efficacy in % ([11]; application rate 500 g/ha) | efficacy in % ([10]; application rate 500 g/ha)
Cn1nc(C(F)(F)C(F)(F)F)c(C(F)(F)F)c1-n1cc(-c2ccc(Cl)c(C(=O)NC3(C(N)=O)CC3)c2)cn1 [Ic-29] | 3.07 | 80% | 100% | 100% | 100% | 100% | 100% | 100% | 100% | 100% | – | – | – | – | – | – | – | –
Cn1nc(C(F)(F)C(F)(F)F)c(C(F)(F)F)c1-n1cc(-c2ccc(Cl)c(C(=O)NC3CSC3)c2)cn1 [Ic-28] | 4.09 | – | 100% | 100% | 100% | 100% | 100% | 100% | 100% | 100% | 90% | 100% | 100% | – | – | – | – | –
Cc1coc(NC(=O)c2cc(-c3cnn(-c4c(C(F)(F)F)c(C(F)(F)C(F)(F)F)nn4C)c3)ccc2Cl)n1 [Ic-160] | – | 100% | 100% | 100% | 100% | 100% | – | – | 100% | 100% | – | – | 100% | 100% | – | – | – | –
Cn1nc(C(F)(F)C(F)(F)F)c(C(F)(F)F)c1-n1cc(-c2ccc(F)c(C(=O)NC3(C#N)CC3)c2F)cn1 [Ic-175] | – | 90% | 100% | 100% | 100% | 100% | – | – | 100% | 100% | – | – | – | – | 100% | 100% | 100% | –
Cn1nc(C(F)(F)C(F)(F)F)c(C(F)(F)F)c1-n1cc(-c2cncc(C(=O)NC3CC3)c2)cn1 [Ic-70] | – | – | 100% | 100% | 100% | 100% | – | – | 100% | 100% | – | – | 100% | 100% | 100% | 100% | – | 90%
Cc1ccc(-c2cnn(-c3c(C(F)(F)F)c(C(F)(F)C(F)(F)F)nn3C)c2)cc1C(=O)NC1CC1 [Ic-130] | 3.76 | 100% | – | – | – | – | 100% | – | – | – | – | – | – | – | – | – | – | –
Cn1nccc1NC(=O)c1cc(-c2cnn(-c3c(C(F)(F)F)c(C(F)(F)C(F)(F)F)nn3C)c2)ccc1Cl [Ic-163] | – | – | 100% | 100% | 100% | 90% | – | – | 100% | 100% | – | – | – | 100% | 100% | 100% | 100% | 90%
Cn1nc(C(F)(F)F)c(CF)c1-n1cc(-c2ccc(Cl)c(C(=O)NC3CC3)c2)cn1 [Ic-103] | 2.89 | 90% | 100% | 100% | 100% | 80% | 100% | 100% | – | – | – | 100% | 100% | 100% | – | – | – | –
Cc1nnc(NC(=O)c2cc(-c3cnn(-c4c(C(F)(F)F)c(C(F)(F)C(F)(F)F)nn4C)c3)ccc2Cl)o1 [Ic-158] | – | 100% | 100% | 100% | 100% | 90% | – | – | 100% | 100% | – | – | – | – | – | – | – | –
Cn1nc(C(F)(F)C(F)(F)F)c(C(F)(F)F)c1-n1cc(-c2cncc(C(=O)NC3(C#N)CC3)c2)cn1 [Ic-71] | – | – | 100% | 100% | 100% | 80% | – | – | 100% | 100% | – | – | 100% | 80% | 100% | 100% | 100% | 100%
Cn1nc(C(F)(F)C(F)(F)F)c(C(F)(F)F)c1-n1cc(-c2cc(F)c(F)c(C(=O)NC3CC3)c2)cn1 [Ic-55] | – | – | 100% | 100% | 100% | 100% | – | – | – | – | – | – | – | – | 100% | 100% | 80% | 100%
Cn1nc(C(F)(F)C(F)(F)F)c(C(F)(F)F)c1-n1cc(-c2cccc(C(=O)NC3(C#N)CC3)c2F)cn1 [Ic-40] | – | – | 100% | 100% | 100% | 100% | – | – | – | – | – | – | – | – | 100% | 100% | 100% | 100%
Cn1nc(C(F)(F)C(F)(F)F)c(C(F)(F)F)c1-n1cc(-c2cc(C(=O)NC3CC3)ccc2F)cn1 [Ic-41] | – | – | 100% | 100% | 100% | 100% | – | – | 100% | 100% | – | – | – | – | 100% | 100% | 100% | 100%
